Source: ChEMBL document CHEMBL1149623, “Identification of antibacterial and antiviral activities of novel fused 1,2,4-triazine esters” (2007)

Columns and labels:
HEK293 [1] = test: Cytotoxicity against human HEK293 cells at 25 ug/mL after 48 hrs by MTT assay; assay type: functional
Echovirus E9 [2] = test: Antiviral activity against Human echovirus 9 in GMK cells assessed as virus titre at 50 ug/mL after 1 hr; assay type: functional
[3] = Cytotoxicity against monkey GMK cells at 5 ug/mL after 24 hrs by MTT assay; assay type: functional, Chlorocebus aethiops
[4] = Cytotoxicity against monkey GMK cells at 10 ug/mL after 96 hrs by MTT assay; assay type: functional, Chlorocebus aethiops
HEK293 [5] = test: Cytotoxicity against human HEK293 cells at 10 ug/mL after 72 hrs by MTT assay; assay type: functional
Streptococcus pyogenes = test: Antibacterial activity against Streptococcus pyogenes at 100 mg/mL after 24 hrs by disc diffusion method; assay type: functional
[6] = Cytotoxicity against monkey GMK cells at 200 ug/mL after 24 hrs by MTT assay; assay type: functional, Chlorocebus aethiops
Staphylococcus aureus = test: Antibacterial activity against Staphylococcus aureus ATCC 25923 at 100 mg/mL after 24 hrs by disc diffusion method; assay type: functional
Echovirus E9 [7] = test: Antiviral activity against Human echovirus 9 in GMK cells assessed as inhibition of virus titre at 50 ug/mL after 24 hrs by CPE method; assay type: functional; settings: Enterovirus B
Human adenovirus 5 [8] = test: Antiviral activity against Human adenovirus 5 in HEK293 cells assessed as virus titre at 200 ug/mL after 1 hr; assay type: functional
HEK293 [9] = test: Cytotoxicity against human HEK293 cells at 100 ug/mL after 120 hrs by MTT assay; assay type: functional
[10] = Cytotoxicity against monkey GMK cells at 50 ug/mL after 48 hrs by MTT assay; assay type: functional, Chlorocebus aethiops
[11] = Cytotoxicity against monkey GMK cells at 100 ug/mL after 96 hrs by MTT assay; assay type: functional, Chlorocebus aethiops
Human adenovirus 5 [12] = test: Antiviral activity against Human adenovirus 5 in HEK293 cells assessed as virus titre at 50 ug/mL after 1 hr; assay type: functional
[13] = Cytotoxicity against monkey GMK cells at 5 ug/mL after 120 hrs by MTT assay; assay type: functional, Chlorocebus aethiops
[14] = Cytotoxicity against monkey GMK cells at 100 ug/mL after 24 hrs by MTT assay; assay type: functional, Chlorocebus aethiops
Escherichia coli = test: Antibacterial activity against Escherichia coli ATCC 25922 at 100 mg/mL after 24 hrs by disc diffusion method; assay type: functional
[15] = system: Staphylococcus epidermidis; test: Antibacterial activity against Staphylococcus epidermidis at 100 mg/mL after 24 hrs by disc diffusion method; assay type: functional
[16] = Cytotoxicity against monkey GMK cells at 2.5 ug/mL after 72 hrs by MTT assay; assay type: functional, Chlorocebus aethiops
Echovirus E9 [17] = test: Antiviral activity against Human echovirus 9 in GMK cells assessed as inhibition of virus titre at 200 ug/mL after 24 hrs by CPE method; assay type: functional; settings: Enterovirus B
HEK293 [18] = test: Cytotoxicity against human HEK293 cells at 10 ug/mL after 120 hrs by MTT assay; assay type: functional
HEK293 [19] = test: Cytotoxicity against human HEK293 cells at 25 ug/mL after 24 hrs by MTT assay; assay type: functional
[20] = Cytotoxicity against monkey GMK cells at 5 ug/mL after 48 hrs by MTT assay; assay type: functional, Chlorocebus aethiops
[21] = Cytotoxicity against monkey GMK cells at 2.5 ug/mL after 120 hrs by MTT assay; assay type: functional, Chlorocebus aethiops
Human adenovirus 5 [22] = test: Antiviral activity against Human adenovirus 5 in HEK293 cells assessed as virus titre at 100 ug/mL after 1 hr; assay type: functional
Human adenovirus 5 [23] = test: Antiviral activity against Human adenovirus 5 in HEK293 cells assessed as inhibition of virus titre at 100 ug/mL after 24 hrs by CPE method; assay type: functional; settings: Human mastadenovirus C, HEK293, 24 h
Human adenovirus 5 [24] = test: Antiviral activity against Human adenovirus 5 in HEK293 cells assessed as inhibition of virus titre at 50 ug/mL after 24 hrs by CPE method; assay type: functional; settings: Human mastadenovirus C, HEK293, 24 h
Human adenovirus 5 [25] = test: Antiviral activity against Human adenovirus 5 in HEK293 cells assessed as inhibition of virus titre at 200 ug/mL after 24 hrs by CPE method; assay type: functional; settings: Human mastadenovirus C, HEK293, 24 h
Echovirus E9 [26] = test: Antiviral activity against Human echovirus 9 in GMK cells assessed as inhibition of virus titre at 100 ug/mL after 24 hrs by CPE method; assay type: functional; settings: Enterovirus B

SMILES | Activity (HEK293 [1]) | TCID50 (Echovirus E9 [2]) | Activity [3] | Activity [4] | Activity (HEK293 [5]) | Inhibition (Streptococcus pyogenes) | Activity [6] | TCID50 (Human adenovirus 5 [8]) | Activity (HEK293 [9]) | Activity [10] | Activity [11] | TCID50 (Human adenovirus 5 [12]) | Activity [13] | Activity [14] | Activity [16] | Activity (HEK293 [18]) | Activity (HEK293 [19]) | Activity [20] | Activity [21] | TCID50 (Human adenovirus 5 [22]) | other results
CCOC(=O)CC1NN=C2N(CCN2c2ccc(Cl)cc2)C1=O (configuration not stated) | 100% | 4.23 mL⁻¹ | 100% | 100% | 100% | >20 mm | 100% | 3.5 mL⁻¹ | 50% | 100% | 100% | 3.5 mL⁻¹ | 100% | 100% | 100% | 100% | 100% | 100% | 100% | 3.5 mL⁻¹ | Inhibition (Staphylococcus aureus): <9 mm; inhibition at 50 µg/mL (Echovirus E9 [7]): 9.4%; Inhibition (Escherichia coli): 10 mm; Inhibition [15]: 16 mm; inhibition at 200 µg/mL (Echovirus E9 [17]): 25%
CCOC(=O)CC1NN=C2N(CCN2c2ccc(C)cc2)C1=O (configuration not stated) | 100% | 3.67 mL⁻¹ | 100% | 95% | 100% | – | 0% | 2.5 mL⁻¹ | 70% | 80% | 70% | 2.5 mL⁻¹ | 100% | 90% | 100% | 100% | 100% | 100% | 100% | 2.5 mL⁻¹ | inhibition at 100 µg/mL (Human adenovirus 5 [23]): 23%; inhibition at 50 µg/mL (Human adenovirus 5 [24]): 23%; inhibition at 200 µg/mL (Human adenovirus 5 [25]): 23%
COC(=O)CC1NN=C2N(CCN2c2cccc(Cl)c2)C1=O (configuration not stated) | 100% | 3.33 mL⁻¹ | 100% | 100% | 100% | 10 mm | 80% | 3.23 mL⁻¹ | 50% | 95% | 0% | 3.5 mL⁻¹ | 100% | 80% | 100% | 100% | 100% | 100% | 100% | 3.5 mL⁻¹ | Inhibition (Staphylococcus aureus): 16 mm; inhibition at 100 µg/mL (Echovirus E9 [26]): 9.9%; inhibition at 200 µg/mL (Human adenovirus 5 [25]): 8%; Inhibition (Escherichia coli): >20 mm; Inhibition [15]: 16 mm
